{"source": "patent US20220233503A1", "about": "“METHODS OF TREATING SEPSIS WITH SYNAPTIC VESICLE 2A AND/OR 2B BINDING CHEMICAL ENTITIES” (INSTITUT PASTEUR, priority 2016, published 2022)", "key": {"CLP mice [1]": {"system": "CLP mice", "test": "Survival after cecal ligature and puncture (CLP) sepsis", "assay_type": "in vivo, C57Bl/6 mice", "settings": "300 mg/Kg intraperitoneously, within the first four days, placebo 53%, n=212, p<0.001", "protocol": "Cecal ligature and puncture: Cecal ligature and puncture on mice were performed under general anesthesia. Briefly, C57Bl/6 mice were anesthetized with an intraperitoneal injection of Xylazine (20 mg/Kg, Rompun 2%, Bayer, Leverkusen, Germany), and Ketamine (100 mg/Kg, Imalgene, Mérial, Lyon, France) in 100 μl of saline solution at 0.9%. After anesthetic administration, mice were placed in a heated cage or surgical table upon awakening to maintain a body temperature at 37° C. Absence of reaction to leg and tail pinch were checked before incision of abdominal wall and peritoneum. Caecum was found with wet cotton swabs and exposed before loose ligation with Mersilk 4.0 (Ethicon, Cincinatti, USA), 2 transfixiant punctures were realized avoiding blood vessels with a 21G needle. Feces were expressed between cotton swabs before suturing abdominal muscles and peritoneum in 2 separate plans.\nAnalgesia and rehydration of mice were performed with buprenorphine (0.1 mg/Kg, Buprecare, Axience, Pantin, France) every 12 hours until complete recovery. […] Clinical scoring: Sepsis severity was evaluated twice a day until day 4, or normalization of «sepsis score», a previously described score that ranges from 1 to 12. […] Each item was scored 0 or 1, with a total score rang from 0 (normal) to 12 (highly severe). […]"}, "CLP mice [2]": {"system": "CLP mice", "test": "Open field test after sepsis", "assay_type": "in vivo", "settings": "septic mice, 10 days after sepsis, vs saline", "protocol": "[…] The experimentator was blinded to the experimental group.\nOpen Field Mice were placed 45 minutes before being held in the experimental room. Single mice were then placed in a squared 40 cm box in an experimental room and captured with a camera during 10 minutes. Mice were tracked using Ethovision XT and their tail, nose and barycenter was marked. The total length walked, the ratio of time spent moving/non moving, the maximum velocity and the mean distance from barycenter to arena's center were recorded. Datas are presented as Mean±SEM.\nDatas are presented as mean±SEM. Sepsis presented a persisting effect on locomotor functions:sepsis lowered the distance traveled (E, p<0.05), increased the time spent not moving (F, p<0.05) and the mean distance to center (G, p<0.05) compared to control mice."}, "[3]": {"system": "pro- and anti-inflammatory cytokine levels in Serum", "test": "Cytokine multiplex in serum after sepsis", "assay_type": "in vivo, mice", "settings": "24 hours after sepsis induction", "protocol": "Cytokine multiplex: Brain samples were weighed and unfrosted in 100 μl of extraction buffer (PBS 1×, complete protease inhibitor, sigma-aldrich, triton 0.1%) processed in 2 ml Lysing Matrix A tubes with FastPrep-24 (MP biomedicals, Germany). Tubes were centrifuged at 20000 g at 4° C. and supernatant was collected and protein concentration was determined with light absorbance at 280 nm using a Nanodrop Lite Spectrophotometer (Thermo Scientific). Sera were used undiluted. Cytokines were measured using a Bio-Plex System and Mouse Cytokine Standard 23-Plex Group 1 kit following manufacturer's recommendations. Raw datas were analyzed by dividing the concentration of cytokine with protein concentration in lyzate and weight of sample measured on precision balance. Then every cytokine concentrations are presented as a ratio compared to the untreated sepsis group."}, "[4]": {"system": "CD11b positive cells (microglial cells)", "test": "mRNA expression of M1/M2 markers and cytokines in sorted CD11b positive cells after sepsis", "assay_type": "in vivo, mice", "protocol": "RNA Purification: Total brains or mircodissected brain under binoccular magnifier were collected in liquid nitrogen and stored at −80° C. before processing. Tissues were unfrosted in 1 ml of Qiazol (Qiagen, Nederland) and shredded using a TissueLyzer II and metallic beads (Qiagen, Nederland). Two hundred microlitters of chloroform (Merck, Darmstadt, Deutschland) were added before spinning for 15′ at 4° C.-20 000 rpm. The upper aqeuous phase was collected and purified using RNEasy Minikit with a DNAse step (Qiagen, Nederland) to remove any remaining genomic DNA. Purified RNA were quantified and a reverse transcription on 500 ng of RNA using SuperScript® II Reverse Transcriptase (Life Technologies) was realized. Quantitative real time polymerase chain reaction was performed on 10 ng cDNA with SYBR® Select Master Mix (Roche, Franche) following manufacturer's recommandation on a StepOne™ Real-Time PCR System (Life Technologies) and results were analyzed on StepOne softwares. Triplicates with a Cycle Threshold standard deviation <0.2 were considered for further analyzes. ΔΔCT method was used to quantify fold increases between animals from different groups to control group mean. The following primers were used.\nDatas are presented as mean±SEM compared to septic placebo group set at 1."}, "[5]": {"system": "primary murine microglial cells", "test": "Cytokine transcription in LPS-activated primary microglial cells", "assay_type": "cell-based, C57/B16 mice", "settings": "for increase of TNFalpha gene expression: p<0.0001; for IL6 gene expression: 24 hours", "from_the_text": "(§1) NO: 53) and anti-sense primer:[…] NO: 54). […] ID NO: 55) and anti-sense primer […] NO: 56). […] NO: 57) and anti-sense primer:[…] NO: 58)."}, "[6]": {"system": "primary murine microglial cells", "test": "Pro- and anti-inflammatory marker transcription in primary microglial cells exposed to LPS", "assay_type": "cell-based, C57/B16 mice", "settings": "primary microglial cells after LPS exposure", "from_the_text": "as §1"}, "[7]": {"system": "rats treated to model traumatic brain injury", "settings": "54 mg/kg or 170 mg/kg single perfusion 15 minutes after injury; cited from earlier work"}, "[8]": {"settings": "CD11b positive cells, 24 hours after sepsis, vs placebo"}}, "data": [{"smiles": "CC[C@@H](C(N)=O)N1CCCC1=O", "note": "(single isomer, unassigned) [levetiracetam]", "values": [{"measurement": "survival rate", "setting": "CLP mice [1]", "result": 81, "unit": "%"}, {"measurement": "open field distance traveled (sepsis-associated lowering)", "setting": "CLP mice [2]", "result": "did not influenced"}, {"measurement": "open field time spent not moving", "setting": "CLP mice [2]", "result": "did not influenced"}, {"measurement": "open field mean distance to center", "setting": "CLP mice [2]; p=0.043 Mann-Whitney", "result": "decreased"}, {"measurement": "cytokine concentration in plasma", "setting": "[3]", "result": "No significant effect"}, {"measurement": "CD32 transcription", "setting": "[4]; [8]", "result": "increased"}, {"measurement": "CD86 transcription", "setting": "[4]; [8]", "result": "increased"}, {"measurement": "Il 1 beta transcription", "setting": "[4]; [8]", "result": "increased"}, {"measurement": "MCP 1 transcription", "setting": "[4]; [8]", "result": "increased"}, {"measurement": "anti inflammatory markers transcription", "setting": "[4]; [8]", "result": "not increased"}, {"measurement": "microglial cell polarization", "setting": "[4]; microglial cell sorting in whole brain of septic mice", "result": "polarized towards a pro-inflammatory (M1) phenotype"}, {"measurement": "increase of TNFalpha gene expression", "setting": "[5]; high LPS (10 ng/mL), high dose levetiracetam (100 micrograms/mL), [0.86-0.30]", "result": 0.58}, {"measurement": "decrease of TNFalpha gene expression", "setting": "[5]; high LPS (10 ng/mL), low dose levetiracetam (10 micrograms/mL), [0.10-0.66], p<0.01", "result": 0.38}, {"measurement": "IL6 gene expression", "setting": "[5]; high-dose LPS (10 ng/mL), high-dose levetiracetam (100 micrograms/mL), [0.25-0.97], p<0.001", "result": 0.61, "unit": "fold"}, {"measurement": "IL1 beta expression", "setting": "[5]; in vitro, activated microglial cell or not", "result": "No effect"}, {"measurement": "increase of TNFalpha gene expression", "setting": "[5]; low LPS (1 ng/mL), low levetiracetam (10 micrograms/mL), [0.82-0.26]", "result": 0.53}, {"measurement": "IL6 gene expression", "setting": "[5]; low-dose LPS challenge (1 ng/mL)", "result": "did not modify"}, {"measurement": "expression of anti and proinflammatory markers", "setting": "[6]", "result": "modified"}, {"measurement": "cognitive outcome", "setting": "[7]", "result": "improved"}]}]}
